# Data from patent USRE48461E1, “Modulation of androgen receptor expression” (Ionis Pharmaceuticals, Inc., priority 2012, dated 2021).
# Read-outs that look alike come from different tables or passages of the source. Oligonucleotides are written 5' to 3', each unit as a sugar letter and its base; * is a phosphorothioate linkage, no mark a phosphodiester; rarer units and linkages stand in square brackets, end groups in braces. Plain capitals give the bases only. k = constrained ethyl (cEt); [5mC] = 5-methylcytosine; d = 2'-deoxy (DNA)
# Tests used:
# AR mRNA = test: Antisense inhibition of human AR in HuVEC cells, single concentration (electroporation, qRT-PCR RTS3559); format: cell-based
# Procedure, shortened: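 AR mRNA levels were measured with human primer-probe set RTS3559 and adjusted for total RNA (RIBOGREEN). Cells were HuVEC, with each antisense oligonucleotide delivered by electroporation at one concentration.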
# C4-2B cells = test: C4-2B cell proliferation, ASO in combination with MDV3100 (Example 19); format: cell-based, human; conditions: for inhibition at 1 µM: Homo sapiens, PBS (no ASO) + MDV3100 1 μM, read-out: Percent inhibition of C4-2B cell proliferation
# Protocol: C4-2B cells were plated at 1,500 cells per well. […] ISIS 347526 was included as a negative control. […] After a treatment period of 6 days, the proliferative capacity of the cancer cells was measured with CellTiter 96® AQueous One Solution Cell Proliferation kit (Promega), following the manufacturer's instructions. Results are presented in Table 46 as percent inhibition of proliferation, relative to non-treated cells. Treatment of the cells with ISIS 549372 or ISIS 549458 reduced proliferation of the cells more extensively than treatment with ISIS 554221.
# full-length AR = test: Western blot of full-length AR in C4-2B cells (time course); format: cell-based, human; conditions: 24 hours and 48 hours, normalized to GAPDH
# Protocol: Protein levels in the cells were also analyzed. The cells were harvested in RIPA buffer containing protease inhibitors. The presence of bands for full-length AR was detected by western blot using AR antibody (N-20, SC-816, Santa Cruz Biotechnology).
# testosterone = test: Serum testosterone levels in cynomolgus monkeys (ELISA); format: in vivo; conditions: cynomolgus monkey, 40 mg/kg subcutaneously, 40 mg/kg
# Protocol: Serum testosterone protein levels were measured in the plasma with an ELISA kit (Enzo Life Sciences), following the manufacturer's instructions.
# [1] = cynomolgus monkey, in vivo, sc, 40 mg/kg
# Protocol: (§1) Prior to the study, the monkeys were kept in quarantine for a 30-day period, during which the animals were observed daily for general health. The monkeys were 2-4 years old and weighed between 2 and 4 kg. Thirteen groups of four randomly assigned male cynomolgus monkeys each were injected subcutaneously with ISIS oligonucleotide or PBS. PBS solution or ISIS oligonucleotides, at a dose of 40 mg/kg, were administered with a loading regimen consisting of four doses on the first week of the study (days 1, 3, 5, and 7), followed by a maintenance regimen consisting of once weekly administration starting on Day 14 (weeks 2 to 6). Subcutaneous injections were performed in clock-wise rotations at 4 sites on the back; one site per dose. The injection sites were delineated by tattoo, while sedated using ketamine, and were separated by a minimum of 3 cm.
# To evaluate any effect of ISIS oligonucleotides in cynomolgus monkeys on hematologic parameters, blood samples of approximately 0.5 mL of blood was collected day 44 from each of the available study animals in tubes containing K2-EDTA. Samples were analyzed for red blood cell (RBC) count, white blood cells (WBC) count, platelet count, hemoglobin content and hematocrit, using an ADVIA2120i hematology analyzer (SIEMENS, USA).
# [2] = cynomolgus monkey, in vivo, sc, 40 mg/kg; remark: listed apart in the source
# [3] = cynomolgus monkey, in vivo, sc, 40 mg/kg; remark: listed apart in the source
# [4] = cynomolgus monkey, in vivo
# Protocol: as §1
# The concentrations of the full-length oligonucleotide in the kidney and the liver of select treatment groups were measured. The method used is a modification of previously published methods (Leeds et al., 1996; Geary et al., 1999) which consist of a phenol-chloroform (liquid-liquid) extraction followed by a solid phase extraction.
# [5] = Table 19, 500 nM oligonucleotide, electroporation, approximately 24 hours, relative to untreated control
# [6] = Table 20, 500 nM oligonucleotide, electroporation, approximately 24 hours, relative to untreated control
# [7] = Table 21, 500 nM oligonucleotide, electroporation, approximately 24 hours, relative to untreated control
# [8] = Table 22, 500 nM oligonucleotide, electroporation, approximately 24 hours, relative to untreated control
# [9] = Table 23, 500 nM oligonucleotide, electroporation, approximately 24 hours, relative to untreated control
# [10] = Table 24, 1,000 nM oligonucleotide, electroporation, approximately 24 hours, relative to untreated control
# [11] = Table 25, 1,000 nM oligonucleotide, electroporation, approximately 24 hours, relative to untreated control
# [12] = Table 27, 1,000 nM oligonucleotide, electroporation, approximately 24 hours, relative to untreated control
# [13] = Table 28, 1,000 nM oligonucleotide, electroporation, approximately 24 hours, relative to untreated control
Compound,"% inhibition (AR mRNA; 500 nM ASO, ~24 h, Table 16) [%]","% inhibition (AR mRNA; 500 nM ASO, ~24 h, Table 17) [%]","% inhibition (AR mRNA; 500 nM ASO, ~24 h, Table 18) [%]","% inhibition (AR mRNA; 1,000 nM ASO, ~24 h, Table 13) [%]","% inhibition (AR mRNA; 1,000 nM ASO, ~24 h, Table 26) [%]",% inhibition (AR mRNA; [5]) [%],% inhibition (AR mRNA; [6]) [%],% inhibition (AR mRNA; [7]) [%],% inhibition (AR mRNA; [8]) [%],% inhibition (AR mRNA; [9]) [%],% inhibition (AR mRNA; [10]) [%],% inhibition (AR mRNA; [11]) [%],% inhibition (AR mRNA; [12]) [%],% inhibition (AR mRNA; [13]) [%],full-length AR protein (western blot) (full-length AR),Serum testosterone level (testosterone) [ng/mL],HCT [1] [%],Hemoglobin [1] [g/dL],Platelets [1] [µL],RBC [1] [µL],other results
549372 (kA*kA*kG*dT*dT*dG*dT*dA*dG*dT*dA*dG*dT*k[5mC]*kG*k[5mC]) [compound 549372],47,40,26,64,58,39,23,37,46,25,63,59,70,54,–,–,–,–,–,–,"% inhibition (AR mRNA; 500 nM ASO, electroporation, ~24 h, Table 1): 92%"
549458 (kG*kT*kT*dG*dA*dT*dT*dT*dA*dA*dT*dG*dG*kT*kT*kG) [compound 549458],60,46,48,87,79,50,54,47,39,51,88,76,76,65,–,–,–,–,–,–,"% inhibition (AR mRNA; 250 nM ASO, ~24 h, Table 7): 71%; % inhibition (AR mRNA; 500 nM ASO, electroporation, ~24 h, Table 2): 95%; % inhibition (AR mRNA; 500 nM ASO, ~24 h, Table 5): 94%"
"CNC(=O)c1ccc(N2C(=S)N(c3ccc(C#N)c(C(F)(F)F)c3)C(=O)C2(C)C)cc1F [MDV3100, 4-(3-(4-cyano-3-(trifluoromethyl)phenyl)-5,5-dimethyl-4-oxo-2-thioxoimidazolidin-1-yl)-2-fluoro-N-methylbenzamide, reference compound]",–,–,–,–,–,–,–,–,–,–,–,–,–,–,–,–,–,–,–,–,inhibition at 1 µM (C4-2B cells; Table 46): 38%; inhibition at 1 µM (C4-2B cells; Table 47): 46%
"GTTGATTTAATGGTTG (all phosphorothioate, sugars by position not given here; further chemistry not fully specified) [ISIS 549458]",–,–,–,–,–,–,–,–,–,–,–,–,–,–,–,–,–,–,–,–,"Percent inhibition of C4-2B cell proliferation with 0.1 μM ASO (C4-2B cells; 0.1 μM ASO + MDV3100 1 μM, 6 days): 75%; Percent inhibition of C4-2B cell proliferation with 0.1 μM ASO (C4-2B cells; 0.1 μM ASO + MDV3100 […], 6 days): 59%; Percent inhibition of C4-2B cell proliferation with 0.1 μM ASO (C4-2B cells; 0.1 μM ASO, MDV3100 0 μM, 6 days): 39%; Percent inhibition of C4-2B cell proliferation with 0.2 μM ASO (C4-2B cells; 0.2 μM ASO + MDV3100 1 μM, 6 days): 79%; Percent inhibition of C4-2B cell proliferation with 0.2 μM ASO (C4-2B cells; 0.2 μM ASO + MDV3100 […], 6 days): 75%; Percent inhibition of C4-2B cell proliferation with 0.2 μM ASO (C4-2B cells; 0.2 μM ASO, MDV3100 0 μM, 6 days): 74%; synergy with MDV3100 (C4-2B cells; C4-2B cells): synergistic with MDV3100; cell proliferation inhibited, combination (C4-2B cells; C4-2B cells, 0.1 μM ASO in combination with […] MDV3100): 75%; inhibited cell proliferation, ASO alone (C4-2B cells; C4-2B cells, ASO alone at 0.1 μM): 39%; reduced cell proliferation, ASO alone (C4-2B cells; C4-2B cells, ASO alone, 6 days, Table 46 (0.1 μM ASO)): 74%; prostate cancer cell proliferation, ASO in combination with MDV3100 (C4-2B cells; C4-2B cells, versus equal molar ISIS 554221 + MDV3100): inhibited prostate cancer cell proliferation to a greater extent than an equal molar concentration of ISIS 554221 in combination of MDV3100"
"TGATTTAATGGTTGCA [ISIS 569236] (cEt/MOE gapmer chemistry, further chemistry not given here)",–,–,–,–,–,–,–,–,–,–,–,–,–,–,significantly reduced,12.7,44,13.1,358000,5.7e+06,"WBC [1]: 14400 µL; Plasma BUN [2]: 24.9 mg/dL; Plasma Creatinine [2]: 0.87 mg/dL; C3 (% of baseline) [3]: 103 % of baseline; CRP [3]: 2.6 mg/dL; Oligonucleotide concentration, Kidney ([4]; sc, 40 mg/kg): 1282 μg/g tissue; Oligonucleotide concentration, Liver ([4]; sc, 40 mg/kg): 898 μg/g tissue"
"TTGATTTAATGGTTGC [ISIS 560131] (MOE and (S)-cEt gapmer chemistry, further chemistry not given here)",–,–,–,–,–,–,–,–,–,–,–,–,–,–,significantly reduced,14.7,44,13.1,392000,5.8e+06,"WBC [1]: 11300 µL; Plasma BUN [2]: 23.7 mg/dL; Plasma Creatinine [2]: 0.84 mg/dL; C3 (% of baseline) [3]: 100 % of baseline; CRP [3]: 1.7 mg/dL; K/L ratio [4]: 2.6; Oligonucleotide concentration, Liver ([4]; sc, 40 mg/kg): 793 μg/g tissue"
